This is an account of results in patent US8563556B2, “Crystalline forms and two solvated forms of 4-amino-5-fluoro-3-[5-(4-methylpiperazin-1-yl)-1H-benzimidazol-2-yl]quinolin-2(1H)-one lactic acid salts” (Novartis AG, priority 2008, dated 2013).

Molecules are shown by their SMILES. Where a name gives a salt, the structure may show the parent alone. Read-outs that look alike come from different tables or passages of the source.

Data set [1] is described as follows: Solubility of crystalline forms in solvents. In kind it is physicochemical. Conditions: for Solubility, Butanol: solvent butanol.
Data set [2] in a line: Heat of solution in water at 25° C. In kind it is physicochemical.

Take `CN1CCN(c2ccc3nc(-c4c(N)c5c(F)cccc5[nH]c4=O)[nH]c3c2)CC1` [Anhydrous form A, 4-amino-5-fluoro-3-[5-(4-methylpiperazin-1-yl)-1H-benzimidazol-2-yl]quinolin-2(1H)-one lactic acid salt]: the “Solubility, Acetone” value in data set [1] (solvent acetone, temperature not given) amounted to 840 µg/mL. Moreover, the “Solubility, Butanol” value in data set [1] (temperature not given) was determined as 950 µg/mL. Further, the “Solubility, Ethanol” value in data set [1] (solvent ethanol, temperature not given) worked out at 840 µg/mL. The “Solubility, Isopropanol” value in data set [1] (solvent isopropanol, temperature not given) was determined as 160 µg/mL. Moreover, the “Solubility, Water” value in data set [1] (solvent water, temperature not given) stood at 107000 µg/mL. Also, the “Heat of solution in water (endothermic)” value in data set [2] came out at 1.1 kcal/mol.

As a reminder, the solubility is the dissolved amount per volume that the medium holds. Regarding `CN1CCN(c2ccc3nc(-c4c(N)c5c(F)cccc5[nH]c4=O)[nH]c3c2)CC1` [Anhydrous form II, 4-Amino-5-fluoro-3-[5-(4-methylpiperazin-1-yl)-1H-benzimidazol-2-yl]quinolin-2(1H)-one lactate anhydrous form II], the solubility in data set [1] (acetone, organic solvent or mixture, solvent acetone, temperature not given, read-out: Solubility, Acetone) was 510 µg/mL; in data set [1] (ethanol, organic solvent or mixture, solvent ethanol, temperature not given, read-out: Solubility, Ethanol), 710 µg/mL; in data set [1] (isopropanol, organic solvent or mixture, solvent isopropanol, temperature not given, read-out: Solubility, Isopropanol) it was 80 µg/mL; in data set [1] (water, solvent water, temperature not given, read-out: Solubility, Water) it was 68000 µg/mL. In data set [1] (temperature not given), the “Solubility, Butanol” value stood at 340 µg/mL. Moreover, the “Heat of solution in water (endothermic)” value in data set [2] (listed as Form B) is 2.2 kcal/mol.

Broadly, the Solubility is the dissolved amount per volume that the medium holds. Low readings indicate a poorly soluble substance, high ones a readily soluble substance. As to `CN1CCN(c2ccc3nc(-c4c(N)c5c(F)cccc5[nH]c4=O)[nH]c3c2)CC1` [hemi-pentahydrate, 4-Amino-5-fluoro-3-[5-(4-methylpiperazin-1-yl)-1H-benzimidazol-2-yl]quinolin-2(1H)-one lactate hemi-pentahydrate], the solubility in data set [1] (0.1 N HCl, 25 °C, simulated gastric fluid, HCl 0.1N, 25° C., read-out: Solubility at 25° C., HCl 0.1N) is 55000 µg/mL; in data set [1] (ethanol, 25 °C, organic solvent or mixture, ethanol, 25° C., read-out: Solubility at 25° C., ethanol), 2000 µg/mL. Moreover, the “Solubility at 25° C., water” value in data set [1] (water, 25° C.) was 6200 µg/mL. For the same molecule, the “Heat of solution in water (endothermic)” value in data set [2] worked out at 7.17 kcal/mol.
